Reference: US20250134855A1, “CO[…] AND METHODS OF USING SAME” (LYKOS THERAPEUTICS, INC., priority 2022, published 2025)

Assays:
[1] = Population PK (PPK) model of MDMA and MDA (NONMEM); set-up: species or system human
Text: This example describes the methodology that was used to characterize the PPK of MDMA and its active minor metabolite MDA and the related model-based simulations.
For the PPK analysis, an individual was defined as evaluable if the following criteria were satisfied: • 1. Received at least one dose of MDMA • 2. Had at least one measurable MDMA observation with associated sampling time and dosing information for the MDMA modeling • 3. Had at least one measurable paired MDMA/MDA observation with associated sampling time and dosing information for the MDMA modeling
The evaluation of the impact of covariates on the MDMA and MDA PPK models focused on the most clinically relevant covariates. Prior to covariate selection, a correlation matrix was generated to determine the correlation between covariates. Only the most significant covariate among the highly correlated covariates was included in the model.
Software Nonlinear mixed-effects modeling software (NONMEM®; version 7.4; ICON, Hanover, MD, US), a software package for nonlinear mixed-effects analysis was used for the PPK modeling. R (version 4.0.2) was used for simulations (e.g., to derive exposure measures for subsequent model application analysis).
Algorithms for the Development of the Population PK Model Plasma concentration-time data was analyzed using a nonlinear mixed effects modeling approach. The first-order conditional estimation method of NONMEM with interaction (FOCE INTER) was used for PPK model development.
One-, and two-compartment models were evaluated for MDMA based on the shape of the observed concentration-time profile. MDMA absorption was evaluated in two ways: as a first-order process and as a sequential zero-order process followed by first-order absorption. MDA was developed as a sequential model, with one-, two, and three-compartment models tested.
They were modeled assuming a log-normal distribution as given by the following expression: θki=θk×e^ηk^i where θki denotes the k^th parameter value for the i^th patient, θk denotes the typical parameter value, and ηki denotes the inter-individual random effect for the i^th patient—assumed to have mean of 0 (zero) and variance ωk^2. Collectively, the vector of random effects (across the parameters indexed by k) has the covariance matrix Ω. Covariance matrix structures including diagonal and blocked diagonal structures were evaluated after the completion of covariate model building. The residual error structure was assumed to follow an additive, proportional, or combined additive and proportional error model described by the following:
The subset of covariate-parameter relationships to be included was selected based on exploratory graphical analysis, mechanistic plausibility, and scientific and clinical interest. […] This was either the covariate with the strongest influence as determined by exploratory graphical analysis or the variable that is most meaningful from a clinical, biological, or practical perspective. Continuous covariates were preferred over categorized covariates with the same meaning.
However, graphical covariate analysis can be relied on only if n-shrinkage in the respective population model parameters is low. Covariates that fulfilled the above criteria were tested in a stepwise process. The covariate selection was performed using a forward addition process followed by backward elimination. The likelihood ratio test was used to evaluate the significance of incorporating or removing fixed effects into the population model based on significance levels that were set a priori. For forward addition and backward elimination, significance levels of 0.01 and 0.001 were employed, respectively. The improvement of the model relative to the base model was compared after each of the covariates was added univariately, and the model with the largest improvement was kept for the next evaluation step, given that there was an overall statistical significance supporting the inclusion of the respective covariate. […]

MDR1 = MDR1 (Homo sapiens, UniProt P08183); experiment: Transporter substrate assessment, MDR1
OATP1B3 = OATP1B3 (Homo sapiens, UniProt Q9NPD5); experiment: Transporter substrate assessment, OATP1B3
dogs = experiment: Daily 28-day repeated dose toxicology study, dogs; assay type: in vivo, dog; conditions: 0, 3, 9, or 15 mg/kg/day, daily 28 days
Method: Based on negative in vivo and in vitro genotoxicity studies, the carcinogenic risk of MDMA·HCl is low. No tumors were reported after daily 28-day repeated dose toxicology studies of MDMA in rats (0, 10, 50, or 100 mg/kg/day) or dogs (0, 3, 9, or 15 mg/kg/day).

[2] = target: bile salt export pump (BSEP) (Homo sapiens, UniProt O95342); experiment: Transporter inhibition, BSEP
[3] = MPXF (N =16), population parameter, IIV not included
[4] = 5th percentile of body weight (52 kg)
[5] = 95th percentile of body weight (97 kg)

Sequence of OATP1B3 (Q9NPD5 whole entry): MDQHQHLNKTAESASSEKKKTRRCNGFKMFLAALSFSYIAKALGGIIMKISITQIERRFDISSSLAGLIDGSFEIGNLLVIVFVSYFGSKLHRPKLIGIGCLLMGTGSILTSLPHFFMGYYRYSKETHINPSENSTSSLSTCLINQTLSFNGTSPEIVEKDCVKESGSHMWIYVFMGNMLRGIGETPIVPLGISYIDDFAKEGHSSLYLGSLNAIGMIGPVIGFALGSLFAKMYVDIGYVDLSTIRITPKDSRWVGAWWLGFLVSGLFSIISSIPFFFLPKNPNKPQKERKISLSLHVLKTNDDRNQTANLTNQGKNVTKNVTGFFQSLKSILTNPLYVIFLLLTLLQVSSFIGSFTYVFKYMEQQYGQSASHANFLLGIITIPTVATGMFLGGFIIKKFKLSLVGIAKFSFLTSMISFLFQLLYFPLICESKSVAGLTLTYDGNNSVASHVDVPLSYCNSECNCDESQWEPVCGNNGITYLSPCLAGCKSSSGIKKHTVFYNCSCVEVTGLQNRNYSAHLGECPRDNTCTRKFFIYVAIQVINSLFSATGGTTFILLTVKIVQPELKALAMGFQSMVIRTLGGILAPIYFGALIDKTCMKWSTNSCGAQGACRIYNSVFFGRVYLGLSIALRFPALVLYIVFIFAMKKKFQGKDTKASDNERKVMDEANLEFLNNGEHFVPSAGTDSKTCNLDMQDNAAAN
Sequence of bile salt export pump (BSEP) (O95342 whole entry): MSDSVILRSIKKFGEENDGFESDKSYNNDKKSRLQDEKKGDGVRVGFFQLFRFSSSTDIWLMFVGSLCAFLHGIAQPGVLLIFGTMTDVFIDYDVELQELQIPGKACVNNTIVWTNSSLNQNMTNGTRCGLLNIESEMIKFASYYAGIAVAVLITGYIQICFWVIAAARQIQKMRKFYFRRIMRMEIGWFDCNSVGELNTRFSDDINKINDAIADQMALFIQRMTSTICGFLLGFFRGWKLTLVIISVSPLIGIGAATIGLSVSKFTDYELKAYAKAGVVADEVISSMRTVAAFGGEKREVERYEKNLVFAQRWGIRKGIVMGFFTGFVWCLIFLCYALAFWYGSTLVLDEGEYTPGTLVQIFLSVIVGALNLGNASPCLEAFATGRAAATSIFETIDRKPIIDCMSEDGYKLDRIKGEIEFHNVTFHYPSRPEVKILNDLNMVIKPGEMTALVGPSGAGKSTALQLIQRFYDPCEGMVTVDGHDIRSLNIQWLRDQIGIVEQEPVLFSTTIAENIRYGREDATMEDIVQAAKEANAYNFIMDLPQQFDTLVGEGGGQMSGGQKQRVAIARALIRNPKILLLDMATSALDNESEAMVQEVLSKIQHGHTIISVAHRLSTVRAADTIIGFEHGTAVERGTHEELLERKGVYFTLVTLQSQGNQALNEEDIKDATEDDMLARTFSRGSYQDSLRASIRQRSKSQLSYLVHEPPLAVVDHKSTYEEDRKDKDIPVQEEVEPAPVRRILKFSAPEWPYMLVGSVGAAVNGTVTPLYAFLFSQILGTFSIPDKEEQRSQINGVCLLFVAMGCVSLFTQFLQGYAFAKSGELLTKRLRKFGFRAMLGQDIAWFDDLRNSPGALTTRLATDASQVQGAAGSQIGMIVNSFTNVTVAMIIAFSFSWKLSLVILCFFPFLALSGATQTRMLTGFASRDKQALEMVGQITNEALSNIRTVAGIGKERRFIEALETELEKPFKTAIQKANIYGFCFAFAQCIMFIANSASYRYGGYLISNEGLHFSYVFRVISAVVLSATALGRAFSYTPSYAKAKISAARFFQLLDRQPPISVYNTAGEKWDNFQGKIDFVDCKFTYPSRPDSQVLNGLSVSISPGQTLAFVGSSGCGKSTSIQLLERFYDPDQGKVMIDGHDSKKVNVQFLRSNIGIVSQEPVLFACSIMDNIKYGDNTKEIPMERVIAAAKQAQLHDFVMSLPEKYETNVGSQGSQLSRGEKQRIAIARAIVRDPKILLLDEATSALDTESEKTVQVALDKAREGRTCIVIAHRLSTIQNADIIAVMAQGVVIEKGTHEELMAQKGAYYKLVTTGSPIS
Sequence of MDR1 (P08183 whole entry): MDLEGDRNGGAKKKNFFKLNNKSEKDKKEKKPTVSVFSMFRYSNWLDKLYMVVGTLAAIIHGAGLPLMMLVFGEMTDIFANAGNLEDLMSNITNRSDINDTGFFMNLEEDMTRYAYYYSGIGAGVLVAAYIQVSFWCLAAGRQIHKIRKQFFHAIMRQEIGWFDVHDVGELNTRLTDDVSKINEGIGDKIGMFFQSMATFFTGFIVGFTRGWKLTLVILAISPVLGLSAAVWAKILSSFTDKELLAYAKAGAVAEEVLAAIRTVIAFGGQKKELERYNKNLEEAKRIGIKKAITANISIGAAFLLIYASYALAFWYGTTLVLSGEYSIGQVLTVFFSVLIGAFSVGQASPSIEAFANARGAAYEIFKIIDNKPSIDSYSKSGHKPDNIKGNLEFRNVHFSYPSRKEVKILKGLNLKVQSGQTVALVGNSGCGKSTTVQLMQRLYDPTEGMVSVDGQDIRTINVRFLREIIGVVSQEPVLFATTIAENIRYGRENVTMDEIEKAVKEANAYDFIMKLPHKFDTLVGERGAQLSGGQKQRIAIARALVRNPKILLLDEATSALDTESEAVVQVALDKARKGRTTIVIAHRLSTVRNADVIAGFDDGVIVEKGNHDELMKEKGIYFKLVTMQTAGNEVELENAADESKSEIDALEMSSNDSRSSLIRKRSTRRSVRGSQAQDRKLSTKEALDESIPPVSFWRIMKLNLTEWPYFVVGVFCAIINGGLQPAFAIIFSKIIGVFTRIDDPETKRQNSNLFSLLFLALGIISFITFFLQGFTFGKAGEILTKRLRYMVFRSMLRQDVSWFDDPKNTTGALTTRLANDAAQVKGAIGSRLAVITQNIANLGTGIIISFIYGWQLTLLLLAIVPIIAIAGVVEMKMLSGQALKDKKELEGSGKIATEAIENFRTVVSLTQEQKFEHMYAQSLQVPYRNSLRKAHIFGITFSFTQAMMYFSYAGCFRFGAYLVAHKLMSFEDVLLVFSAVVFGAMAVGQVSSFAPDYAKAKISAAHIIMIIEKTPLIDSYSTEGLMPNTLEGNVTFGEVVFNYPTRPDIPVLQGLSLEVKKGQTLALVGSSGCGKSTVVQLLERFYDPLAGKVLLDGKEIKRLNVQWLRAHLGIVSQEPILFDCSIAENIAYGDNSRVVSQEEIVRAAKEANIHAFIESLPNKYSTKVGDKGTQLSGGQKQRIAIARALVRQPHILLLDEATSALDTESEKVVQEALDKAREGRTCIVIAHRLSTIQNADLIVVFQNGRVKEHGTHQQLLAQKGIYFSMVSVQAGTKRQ

Structure (SMILES): CC(N)Cc1ccc2c(c1)OCO2 (centres unmarked) [MDA, 3,4-methylenedioxyamphetamine]
- MDA Clearance, CLM, post hoc Geo. mean ([1]; MPXF (N =16)): 29.7 L/h
- MDA Intercompartmental Clearance, QM, post hoc Geo. mean ([1]; MPXF (N =16)): 68.4 L/h
- MDA Central Volume, V3 [1, 3]: 20.8 L
- CLM, base model estimate ([1]; base MDA model): 35.6 L/h
- IIV on CLM ([1]; base MDA model): 37.7
- IIV on QM ([1]; base MDA model): 55.8
- IIV on V4 ([1]; base MDA model): 43.5
- V3, base model estimate ([1]; base MDA model): 19.4 L
- lower V4 (MDA peripheral volume of distribution) ([1]; female compared to male subjects): 18%
- Body weight effect on CLM, Bootstrap median ([1]; final MDA model): 0.585
- Body weight effect on CLM, estimate ([1]; final MDA model): 0.580
- Body weight effect on QM, Bootstrap median ([1]; final MDA model): 1.02
- Body weight effect on QM, estimate ([1]; final MDA model): 1.00
- CLM, Bootstrap median ([1]; final MDA model): 83.9 L/h
- CLM, final model estimate ([1]; final MDA model): 79.6 L/h
- Sex effect on V4, Bootstrap median ([1]; final MDA model): −0.18
- V4, Bootstrap median ([1]; final MDA model): 213 L
- V4, final model estimate ([1]; final MDA model): 213 L

Structure (SMILES): CNC(C)Cc1ccc2c(c1)OCO2 (centres unmarked) [MDMA, 3,4-methylenedioxymethamphetamine]
- substrate of MDR1 (MDR1): not a substrate
- substrate of OATP1B3 (OATP1B3): not a substrate
- tumors (dogs): No tumors
- higher MDMA AUC0-44 relative to reference individual [1, 4]: 30%
- higher MDMA Cmax relative to reference individual [1, 4]: 30%
- lower MDMA AUC0-44 relative to reference individual [1, 5]: 28%
- lower MDMA Cmax relative to reference individual [1, 5]: 25%
- Cmax MDMA, post hoc Geo. mean ([1]; MPKF Fasted 120 mg (N = 16)): 246.0 ng/mL
- Cmax MDMA, post hoc Geo. mean ([1]; MPKF Fed 120 mg (N = 14)): 197.3 ng/mL
- Post Hoc Absorption Rate, Geo. mean (Geo. CV %) ([1]; MPKF Fed (N = 14), high fat meal): 0.6 (50.2) 1/h
- Post Hoc Absorption Rate, Geo. mean (Geo. CV %) ([1]; MPKT Fasted (N = 16)): 3.5 (47.0) 1/h
- Duration of zero order absorption, D1, post hoc Geo. mean ([1]; MPXF (N =16)): 0.4 h
- Half-life MDMA, t½, post hoc Geo. mean ([1]; MPXF (N =16)): 8.7 h
- MDMA Apparent Volume of Distribution, V, post hoc Geo. mean ([1]; MPXF (N =16)): 368.3 L
- Lag time, ALAG [1, 3]: 0.3 h
- time to complete clearance (5 half-lives) ([1]; assumed): 38.5 to 43.5 h
- ALAG1, base model estimate ([1]; base MDMA model): 0.312 h
- CL/F, base model estimate ([1]; base MDMA model): 38.3 L/h
- D1, base model estimate ([1]; base MDMA model): 0.242 h
- IIV on D1 ([1]; base MDMA model): 159
- IIV on Ka ([1]; base MDMA model): 55.9
- IIV on V2/F ([1]; base MDMA model): 28.5
- V2/F, base model estimate ([1]; base MDMA model): 444 L
- ka, base model estimate ([1]; base MDMA model): 1.14 h⁻¹
- ALAG1, Bootstrap median ([1]; final MDMA model): 0.323 h
- ALAG1, final model estimate ([1]; final MDMA model): 0.322 h
- Body weight effect on V2/F, Bootstrap median ([1]; final MDMA model): 0.884
- Body weight effect on V2/F, estimate ([1]; final MDMA model): 0.885
- CL/F, Bootstrap median ([1]; final MDMA model): 41.8 L/h
- CL/F, final model estimate ([1]; final MDMA model): 41.5 L/h
- D1, Bootstrap median ([1]; final MDMA model): 0.271 h
- D1, final model estimate ([1]; final MDMA model): 0.304 h
- Fasted status effect on KA, Bootstrap median ([1]; final MDMA model): 1.08
- Fasted status effect on KA, estimate ([1]; final MDMA model): 1.93
- Fed status effect on KA, Bootstrap median ([1]; final MDMA model): −0.496
- Fed status effect on KA, estimate ([1]; final MDMA model): −0.484
- IIV on D1 ([1]; final MDMA model): 153
- IIV on KA ([1]; final MDMA model): 60.2
- IIV on V2/F ([1]; final MDMA model): 19.9
- Study effect on V2/F, Bootstrap median ([1]; final MDMA model): −0.267
- Study effect on V2/F, estimate ([1]; final MDMA model): −0.263
- V2/F, Bootstrap median ([1]; final MDMA model): 461 L
- V2/F, final model estimate ([1]; final MDMA model): 462 L
- ka, Bootstrap median ([1]; final MDMA model): 1.17 h⁻¹
- ka, final model estimate ([1]; final MDMA model): 1.17 h⁻¹
- lower Ka ([1]; subjects fed a high fat diet): 49%
- inhibition of BSEP [2]: not an inhibitor
